Data: the NIST ThermoML archive (doi:10.1016/j.jct.2013.02.001)
“And” between values parts separate entries of the source, which are not always exact repeats. Identical values can stand only once. ± gives the expanded uncertainty stated by the source.

Test: molar heat capacity at constant pressure
Conditions: 101.33 kPa, Quantum Design PPMS relaxation calorimeter

O=P([O-])([O-])OP(=O)([O-])[O-].[Fe+2].[Fe+2] [iron(II) pyrophosphate]
molar heat capacity at constant pressure
Conditions	Crystal 1	Crystal 2
1 K	–	0.08666 ± 0.0091 J/K/mol
1.913 K	–	0.1778 ± 0.018 J/K/mol
2 K	–	0.1915 ± 0.02 J/K/mol
2.064 K	–	0.1986 ± 0.02 J/K/mol
2.26 K	–	0.2225 ± 0.022 J/K/mol
2.531 K	–	0.2638 ± 0.027 J/K/mol
2.801 K	–	0.3059 ± 0.031 J/K/mol
3 K	–	0.3363 ± 0.035 J/K/mol
3.099 K	–	0.357 ± 0.036 J/K/mol
3.44 K	–	0.423 ± 0.043 J/K/mol
3.822 K	–	0.5078 ± 0.051 J/K/mol
4 K	–	0.5546 ± 0.057 J/K/mol
4.26 K	–	0.6259 ± 0.063 J/K/mol
4.75 K	–	0.7875 ± 0.079 J/K/mol
5 K	–	0.8911 ± 0.091 J/K/mol
5.271 K	–	1.009 ± 0.1 J/K/mol
5.851 K	–	1.309 ± 0.13 J/K/mol
6 K	–	1.402 ± 0.14 J/K/mol
6.516 K	–	1.743 ± 0.17 J/K/mol
7 K	–	2.14 ± 0.22 J/K/mol
7.28 K	–	2.343 ± 0.23 J/K/mol
8 K	–	3.105 ± 0.32 J/K/mol
8.038 K	–	3.122 ± 0.31 J/K/mol
8.944 K	–	4.246 ± 0.43 J/K/mol
9 K	–	4.353 ± 0.44 J/K/mol
9.847 K	–	5.612 ± 0.56 J/K/mol
10 K	–	5.87 ± 0.14 J/K/mol
10.08 K	–	5.991 ± 0.6 J/K/mol
10.35 K	–	6.444 ± 0.65 J/K/mol
10.86 K	–	7.341 ± 0.73 J/K/mol
11 K	–	7.59 ± 0.19 J/K/mol
11.2 K	–	7.958 ± 0.8 J/K/mol
11.38 K	–	8.272 ± 0.83 J/K/mol
11.88 K	–	9.198 ± 0.92 J/K/mol
12 K	–	9.403 ± 0.23 J/K/mol
12.4 K	–	10.13 ± 1 J/K/mol
12.41 K	–	10.27 ± 1 J/K/mol
12.91 K	–	11.04 ± 1.1 J/K/mol
13 K	–	11.22 ± 0.27 J/K/mol
13.42 K	–	11.97 ± 1.2 J/K/mol
13.81 K	–	12.78 ± 1.3 J/K/mol
13.93 K	–	12.96 ± 1.3 J/K/mol
14 K	–	13.1 ± 0.32 J/K/mol
14.15 K	–	13.36 ± 1.3 J/K/mol
14.44 K	–	13.97 ± 1.4 J/K/mol
14.67 K	–	14.41 ± 1.4 J/K/mol
14.95 K	–	15.04 ± 1.5 J/K/mol
15 K	–	15.16 ± 0.37 J/K/mol
15.19 K	–	15.57 ± 1.6 J/K/mol
15.31 K	–	15.94 ± 1.6 J/K/mol
15.46 K	–	16.16 ± 1.6 J/K/mol
15.7 K	–	16.68 ± 1.7 J/K/mol
15.96 K	–	17.32 ± 1.7 J/K/mol
16 K	–	17.48 ± 0.42 J/K/mol
16.21 K	–	17.94 ± 1.8 J/K/mol
16.46 K	–	18.55 ± 1.9 J/K/mol
16.73 K	–	19.27 ± 1.9 J/K/mol
16.97 K	–	19.88 ± 2 J/K/mol
17 K	–	20.05 ± 0.48 J/K/mol
17.03 K	–	20.07 ± 2 J/K/mol
17.21 K	–	20.48 ± 2 J/K/mol
17.47 K	–	21.15 ± 2.1 J/K/mol
17.72 K	–	21.75 ± 2.2 J/K/mol
17.97 K	–	22.35 ± 2.2 J/K/mol
18 K	–	22.46 ± 0.54 J/K/mol
18.22 K	–	22.9 ± 2.3 J/K/mol
18.45 K	–	23.46 ± 2.3 J/K/mol
18.7 K	–	23.76 ± 2.4 J/K/mol
18.86 K	–	23.9 ± 2.4 J/K/mol
18.96 K	23.94 ± 2.4 J/K/mol and 23.94 ± 0.57 J/K/mol	23.94 ± 0.57 J/K/mol
19 K	23.61 ± 0.57 J/K/mol	–
19.22 K	23.87 ± 2.4 J/K/mol	–
19.47 K	23.67 ± 2.4 J/K/mol	–
19.72 K	23.25 ± 2.3 J/K/mol	–
19.96 K	22.81 ± 2.3 J/K/mol	–
20 K	22.76 ± 0.55 J/K/mol	–
20.21 K	22.3 ± 2.2 J/K/mol	–
20.45 K	21.81 ± 2.2 J/K/mol	–
20.7 K	21.41 ± 2.1 J/K/mol	–
20.95 K	21.05 ± 2.1 J/K/mol	–
21.21 K	20.68 ± 2.1 J/K/mol	–
21.46 K	20.31 ± 2 J/K/mol	–
21.71 K	20.15 ± 2 J/K/mol	–
21.96 K	20.02 ± 2 J/K/mol	–
22.21 K	19.89 ± 0.4 J/K/mol	–
22.47 K	19.76 ± 0.4 J/K/mol	–
22.74 K	19.73 ± 0.4 J/K/mol	–
22.99 K	19.67 ± 0.39 J/K/mol	–
23.23 K	19.65 ± 0.39 J/K/mol	–
23.29 K	19.66 ± 0.39 J/K/mol	–
23.48 K	19.65 ± 0.39 J/K/mol	–
23.52 K	19.74 ± 0.4 J/K/mol	–
23.7 K	19.62 ± 0.39 J/K/mol	–
23.73 K	19.62 ± 0.39 J/K/mol	–
23.9 K	19.67 ± 0.39 J/K/mol	–
23.98 K	19.66 ± 0.39 J/K/mol	–
24.1 K	19.7 ± 0.39 J/K/mol	–
24.3 K	19.72 ± 0.39 J/K/mol	–
24.47 K	19.77 ± 0.4 J/K/mol	–
24.66 K	19.78 ± 0.4 J/K/mol	–
24.86 K	19.85 ± 0.4 J/K/mol	–
25 K	19.89 ± 0.4 J/K/mol and 19.88 ± 0.48 J/K/mol	–
25.05 K	19.91 ± 0.4 J/K/mol	–
25.25 K	19.94 ± 0.4 J/K/mol	–
25.46 K	19.99 ± 0.4 J/K/mol	–
25.48 K	20.02 ± 0.4 J/K/mol	–
25.65 K	20.06 ± 0.4 J/K/mol	–
25.84 K	20.15 ± 0.4 J/K/mol	–
25.86 K	20.19 ± 0.4 J/K/mol	–
25.98 K	20.18 ± 0.4 J/K/mol	–
